Experiments:
Details in all cases: treatment: drug + dasatinib (fixed dose, not stated); 5 days
[1] = system: A498; experiment: GI50 of drug in presence of dasatinib; higher = less potent
Method: (§1)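 Primary HTS combination arm: 8 RCC cell lines treated with 8 doses (up to 10 uM) of each library drug plus a fixed dose of dasatinib (dose not stated) for 5 days; viability read by CellTiter-Glo and normalised to DMSO. GI50 was fitted with XLfit, AUC is the area under the dose-response curve, and minimum viability is the lowest fraction of DMSO viability across doses.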

[2] = system: 786-O; experiment: as above
Method: as §1

[3] = system: UO-31; experiment: as above
Method: as §1

[4] = system: CAKI-1; experiment: as above
Method: as §1

[5] = system: 769-P; experiment: as above
Method: as §1

[6] = system: TK-10; experiment: as above
Method: as §1

[7] = system: SN12C; experiment: as above
Method: as §1

[8] = system: A498; experiment: minimum viability across doses, drug + dasatinib, relative to DMSO (fraction); higher = less growth inhibition
Method: as §1

[9] = system: ACHN; experiment: as above
Method: as §1

[10] = system: 786-O; experiment: as above
Method: as §1

[11] = system: UO-31; experiment: as above
Method: as §1

[12] = system: CAKI-1; experiment: as above
Method: as §1

[13] = system: 769-P; experiment: as above
Method: as §1

[14] = system: TK-10; experiment: as above
Method: as §1

[15] = system: SN12C; experiment: as above
Method: as §1

[16] = system: A498; experiment: AUC of dose-response viability curve, drug + dasatinib, normalised to DMSO (arbitrary (AUC of normalised viability)); higher = less growth inhibition
Method: as §1

[17] = system: ACHN; experiment: as above
Method: as §1

[18] = system: 786-O; experiment: as above
Method: as §1

[19] = system: UO-31; experiment: as above
Method: as §1

[20] = system: CAKI-1; experiment: as above
Method: as §1

[21] = system: 769-P; experiment: as above
Method: as §1

[22] = system: TK-10; experiment: as above
Method: as §1

[23] = system: SN12C; experiment: as above
Method: as §1

| GI50 of drug [2] [µM] | Structure (SMILES) | GI50 of drug [1] [µM] | GI50 of drug [3] [µM] | GI50 of drug [4] [µM] | GI50 of drug [5] [µM] | GI50 of drug [6] [µM] | GI50 of drug [7] [µM] | minimum viability across doses [8] | minimum viability across doses [9] | minimum viability across doses [10] | minimum viability across doses [11] | minimum viability across doses [12] | minimum viability across doses [13] | minimum viability across doses [14] | minimum viability across doses [15] | AUC of dose-response viability curve [16] | AUC of dose-response viability curve [17] | AUC of dose-response viability curve [18] | AUC of dose-response viability curve [19] | AUC of dose-response viability curve [20] | AUC of dose-response viability curve [21] | AUC of dose-response viability curve [22] | AUC of dose-response viability curve [23] |
| --- | --- | --- | --- | --- | --- | --- | --- | --- | --- | --- | --- | --- | --- | --- | --- | --- | --- | --- | --- | --- | --- | --- | --- |
| 0.113 | CCN(CCO)CCCOc1ccc2c(Nc3cc(CC(=O)Nc4cccc(F)c4)n[nH]3)ncnc2c1 [Barasertib (AZD1152-HQPA)] + Cc1nc(Nc2ncc(C(=O)Nc3c(C)cccc3Cl)s2)cc(N2CCN(CCO)CC2)n1 [dasatinib] | > 10 | > 10 | 0.678 | 1.23 | > 10 | > 10 | 0.841 | 0.417 | 0.157 | 0.842 | 0.402 | 0.346 | 0.685 | 0.628 | 3.31 | 1.83 | 1.61 | 3.22 | 2.04 | 2.09 | 2.65 | 2.41 |
| > 10 | CCCNC(=O)Nc1ccc(Oc2ncnc3cc(OC)c(OC)cc23)cc1Cl [KRN 633] + Cc1nc(Nc2ncc(C(=O)Nc3c(C)cccc3Cl)s2)cc(N2CCN(CCO)CC2)n1 [dasatinib] | > 10 | > 10 | > 10 | > 10 | > 10 | > 10 | 0.847 | 0.421 | 0.468 | 0.889 | 0.556 | 0.511 | 0.613 | 0.612 | 3.47 | 1.76 | 2.06 | 3.62 | 2.31 | 2.44 | 2.5 | 2.51 |
| > 10 | CN1C(=O)C(Cc2c[nH]c3ccccc23)NC1=S (centres undefined) [Necrostatin-1] + Cc1nc(Nc2ncc(C(=O)Nc3c(C)cccc3Cl)s2)cc(N2CCN(CCO)CC2)n1 [dasatinib] | > 10 | > 10 | > 10 | > 10 | > 10 | > 10 | 0.963 | 0.492 | 0.628 | 1.06 | 0.535 | 0.71 | 0.639 | 0.7 | 3.71 | 1.92 | 2.48 | 4.58 | 2.13 | 2.66 | 2.34 | 2.59 |
| 0.354 | Oc1cc(O)cc(/C=C/c2ccc(O)c(O)c2)c1 [Piceatannol] + Cc1nc(Nc2ncc(C(=O)Nc3c(C)cccc3Cl)s2)cc(N2CCN(CCO)CC2)n1 [dasatinib] | > 10 | > 10 | 1.15 | 9.79 | > 10 | > 10 | 0.903 | 0.167 | 0.31 | 1.24 | 0.135 | 0.498 | 0.653 | 0.603 | 3.83 | 1.78 | 1.91 | 5.19 | 2.07 | 1.97 | 2.59 | 2.46 |
| 5.68 | Cn1cc(-c2ccc3nnc(Sc4ccc5ncccc5c4)n3n2)cn1 [SGX-523] + Cc1nc(Nc2ncc(C(=O)Nc3c(C)cccc3Cl)s2)cc(N2CCN(CCO)CC2)n1 [dasatinib] | > 10 | > 10 | 5.5 | > 10 | > 10 | > 10 | 0.743 | 0.452 | 0.477 | 0.836 | 0.41 | 0.548 | 0.646 | 0.679 | 2.84 | 1.87 | 2.25 | 3.15 | 1.92 | 2.38 | 2.41 | 2.46 |
| 0.0101 | O=c1sn(-c2cccc3ccccc23)c(=O)n1Cc1ccccc1 [Tideglusib] + Cc1nc(Nc2ncc(C(=O)Nc3c(C)cccc3Cl)s2)cc(N2CCN(CCO)CC2)n1 [dasatinib] | > 10 | > 10 | > 10 | > 10 | > 10 | > 10 | 0.729 | 0.357 | 0.429 | 1.03 | 0.664 | 0.632 | 0.642 | 0.672 | 3.01 | 1.79 | 1.76 | 4.27 | 2.44 | 2.52 | 2.33 | 2.5 |
| > 10 | CCO.N#CC(=C(/N)Sc1ccccc1N)/C(C#N)=C(\N)Sc1ccccc1N [U0126-EtOH] + Cc1nc(Nc2ncc(C(=O)Nc3c(C)cccc3Cl)s2)cc(N2CCN(CCO)CC2)n1 [dasatinib] | > 10 | > 10 | 6.71 | > 10 | > 10 | > 10 | 0.888 | 0.353 | 0.526 | 0.792 | 0.46 | 0.68 | 0.524 | 0.598 | 3.54 | 1.84 | 2.5 | 3.2 | 2.37 | 2.5 | 2.65 | 2.4 |
| > 10 | NC(=O)c1ccc(N(C(N)=O)c2c(F)cccc2F)nc1-c1ccc(F)cc1F [VX-702] + Cc1nc(Nc2ncc(C(=O)Nc3c(C)cccc3Cl)s2)cc(N2CCN(CCO)CC2)n1 [dasatinib] | > 10 | > 10 | > 10 | > 10 | > 10 | > 10 | 0.887 | 0.409 | 0.547 | 1.12 | 0.649 | 0.627 | 0.598 | 0.685 | 3.52 | 1.87 | 2.23 | 4.36 | 2.43 | 2.4 | 2.39 | 2.54 |

Source: the supplement of paper PMC8149375
